Measured values reported in ChEMBL document CHEMBL2396621, “Design, synthesis and biological evaluation of 2-mercapto-3-phenethylquinazoline bearing anilide fragments as potential antitumor agents: molecular docking study” (2013).

What was measured:
Assay type in all cases: functional
UACC-257 = experiment: Cytotoxicity against human UACC257 cells assessed as growth inhibition at 10 uM after 48 hrs by coulter counter analysis; details: UACC-257, 48 h, read-out: GI
SF-268 = experiment: Cytotoxicity against human SF268 cells assessed as growth inhibition at 10 uM after 48 hrs by coulter counter analysis; details: SF-268, 48 h, read-out: GI
SF-539 = experiment: Cytotoxicity against human SF539 cells assessed as growth inhibition at 10 uM after 48 hrs by coulter counter analysis; details: SF-539, 48 h, read-out: GI
[1] = Cytotoxicity against human EKVX cells assessed as growth inhibition at 10 uM after 48 hrs by coulter counter analysis; details: read-out: GI
A549 = experiment: Cytotoxicity against human A549 cells assessed as growth inhibition at 10 uM after 48 hrs by coulter counter analysis; details: A549, 48 h, read-out: GI
SK-MEL-5 = experiment: Cytotoxicity against human SK-MEL-5 cells assessed as growth inhibition at 10 uM after 48 hrs by coulter counter analysis; details: SK-MEL-5, 48 h, read-out: GI
HCC 2998 = experiment: Cytotoxicity against human HCC2998 cells assessed as growth inhibition at 10 uM after 48 hrs by coulter counter analysis; details: HCC 2998, 48 h, read-out: GI
OVCAR-5 = experiment: Cytotoxicity against human OVCAR5 cells assessed as growth inhibition at 10 uM after 48 hrs by coulter counter analysis; details: OVCAR-5, 48 h, read-out: GI
MCF7 = experiment: Cytotoxicity against human MCF7 cells assessed as growth inhibition at 10 uM after 48 hrs by coulter counter analysis; details: MCF7, 48 h, read-out: GI
Malme-3M = experiment: Cytotoxicity against human MALME-3M cells assessed as growth inhibition at 10 uM after 48 hrs by coulter counter analysis; details: read-out: GI
M14 = experiment: Cytotoxicity against human M14 cells assessed as growth inhibition at 10 uM after 48 hrs by coulter counter analysis; details: M14, 48 h, read-out: GI
NCI-H460 = experiment: Cytotoxicity against human NCI-H460 cells assessed as growth inhibition at 10 uM after 48 hrs by coulter counter analysis; details: NCI-H460, 48 h, read-out: GI
HT-29 = experiment: Cytotoxicity against human HT-29 cells assessed as growth inhibition at 10 uM after 48 hrs by coulter counter analysis; details: HT-29, 48 h, read-out: GI
PC-3 = experiment: Cytotoxicity against human PC3 cells assessed as growth inhibition at 10 uM after 48 hrs by coulter counter analysis; details: PC-3, 48 h, read-out: GI
OVCAR-4 = experiment: Cytotoxicity against human OVCAR4 cells assessed as growth inhibition at 10 uM after 48 hrs by coulter counter analysis; details: OVCAR-4, 48 h, read-out: GI
HCT-116 = experiment: Cytotoxicity against human HCT116 cells assessed as growth inhibition at 10 uM after 48 hrs by coulter counter analysis; details: HCT-116, 48 h, read-out: GI
HCT-15 = experiment: Cytotoxicity against human HCT15 cells assessed as growth inhibition at 10 uM after 48 hrs by coulter counter analysis; details: HCT-15, 48 h, read-out: GI
OVCAR-8 = experiment: Cytotoxicity against human OVCAR8 cells assessed as growth inhibition at 10 uM after 48 hrs by coulter counter analysis; details: OVCAR-8, 48 h, read-out: GI
COLO 205 = experiment: Cytotoxicity against human COLO205 cells assessed as growth inhibition at 10 uM after 48 hrs by coulter counter analysis; details: COLO 205, 48 h, read-out: GI
[2] = Cytotoxicity against human NCI-ADR-RES cells assessed as growth inhibition at 10 uM after 48 hrs by coulter counter analysis; details: read-out: GI
SNB-19 = experiment: Cytotoxicity against human SNB19 cells assessed as growth inhibition at 10 uM after 48 hrs by coulter counter analysis; details: SNB-19, 48 h, read-out: GI
U-251 = experiment: Cytotoxicity against human U251 cells assessed as growth inhibition at 10 uM after 48 hrs by coulter counter analysis; details: U-251, 48 h, read-out: GI
T47D = experiment: Cytotoxicity against human T47D cells assessed as growth inhibition at 10 uM after 48 hrs by coulter counter analysis; details: read-out: GI
UO-31 = experiment: Cytotoxicity against human UO31 cells assessed as growth inhibition at 10 uM after 48 hrs by coulter counter analysis; details: UO-31, 48 h, read-out: GI
SK-OV-3 = experiment: Cytotoxicity against human SKOV3 cells assessed as growth inhibition at 10 uM after 48 hrs by coulter counter analysis; details: SK-OV-3, 48 h, read-out: GI
MDA-MB-468 = experiment: Cytotoxicity against human MDA-MB-468 cells assessed as growth inhibition at 10 uM after 48 hrs by coulter counter analysis; details: MDA-MB-468, 48 h, read-out: GI
SF-295 = experiment: Cytotoxicity against human SF295 cells assessed as growth inhibition at 10 uM after 48 hrs by coulter counter analysis; details: SF-295, 48 h, read-out: GI
MDA-MB-435 = experiment: Cytotoxicity against human MDA-MB-435 cells assessed as growth inhibition at 10 uM after 48 hrs by coulter counter analysis; details: MDA-MB-435, 48 h, read-out: GI
TK-10 = experiment: Cytotoxicity against human TK10 cells assessed as growth inhibition at 10 uM after 48 hrs by coulter counter analysis; details: TK-10, 48 h, read-out: GI
SNB-75 = experiment: Cytotoxicity against human SNB75 cells assessed as growth inhibition at 10 uM after 48 hrs by coulter counter analysis; details: SNB-75, 48 h, read-out: GI
HOP-62 = experiment: Cytotoxicity against human HOP62 cells assessed as growth inhibition at 10 uM after 48 hrs by coulter counter analysis; details: HOP-62, 48 h, read-out: GI
786-0 = experiment: Cytotoxicity against human 786-0 cells assessed as growth inhibition at 10 uM after 48 hrs by coulter counter analysis; details: 786-0, 48 h, read-out: GI
LOX IMVI = experiment: Cytotoxicity against human LOXIMVI cells assessed as growth inhibition at 10 uM after 48 hrs by coulter counter analysis; details: read-out: GI
KM12 = experiment: Cytotoxicity against human KM12 cells assessed as growth inhibition at 10 uM after 48 hrs by coulter counter analysis; details: KM12, 48 h, read-out: GI
RXF 393 = experiment: Cytotoxicity against human RXF393 cells assessed as growth inhibition at 10 uM after 48 hrs by coulter counter analysis; details: RXF 393, 48 h, read-out: GI
A498 = experiment: Cytotoxicity against human A498 cells assessed as growth inhibition at 10 uM after 48 hrs by coulter counter analysis; details: A498, 48 h, read-out: GI
SW-620 = experiment: Cytotoxicity against human SW620 cells assessed as growth inhibition at 10 uM after 48 hrs by coulter counter analysis; details: SW-620, 48 h, read-out: GI

SMILES	inhibition of growth at 10 µM (UACC-257)	inhibition of growth at 10 µM (SF-268)	inhibition of growth at 10 µM (SF-539)	inhibition of growth at 10 µM [1]	inhibition of growth at 10 µM (A549)	inhibition of growth at 10 µM (SK-MEL-5)	inhibition of growth at 10 µM (HCC 2998)	inhibition of growth at 10 µM (OVCAR-5)	inhibition of growth at 10 µM (MCF7)	inhibition of growth at 10 µM (Malme-3M)	inhibition of growth at 10 µM (M14)	inhibition of growth at 10 µM (NCI-H460)	inhibition of growth at 10 µM (HT-29)	inhibition of growth at 10 µM (PC-3)	inhibition of growth at 10 µM (OVCAR-4)	inhibition of growth at 10 µM (HCT-116)	inhibition of growth at 10 µM (HCT-15)	inhibition of growth at 10 µM (OVCAR-8)	inhibition of growth at 10 µM (COLO 205)	inhibition of growth at 10 µM [2]	other results
O=C(CSc1nc2ccccc2c(=O)n1CCc1ccccc1)Oc1ccc(Cl)cc1	< 10%	< 10%	< 10%	28%	< 10%	< 10%	< 10%	< 10%	34%	< 10%	< 10%	< 10%	< 10%	25%	59%	< 10%	25%	< 10%	< 10%	10%	inhibition of growth at 10 µM (SNB-19): < 10%; inhibition of growth at 10 µM (U-251): < 10%; inhibition of growth at 10 µM (T47D): 14%; inhibition of growth at 10 µM (UO-31): < 10%; inhibition of growth at 10 µM (SK-OV-3): 28%; inhibition of growth at 10 µM (MDA-MB-468): < 10%; inhibition of growth at 10 µM (SF-295): < 10%; inhibition of growth at 10 µM (MDA-MB-435): < 10%; inhibition of growth at 10 µM (TK-10): < 10%; inhibition of growth at 10 µM (SNB-75): 28%; inhibition of growth at 10 µM (HOP-62): 10%; inhibition of growth at 10 µM (786-0): < 10%; inhibition of growth at 10 µM (LOX IMVI): 14%; inhibition of growth at 10 µM (KM12): < 10%; inhibition of growth at 10 µM (RXF 393): < 10%; inhibition of growth at 10 µM (A498): 10%; inhibition of growth at 10 µM (SW-620): < 10%
CC(=O)c1ccc(NC(=O)CSc2nc3ccccc3c(=O)n2CCc2ccccc2)cc1	36%	32%	< 10%	29%	29%	25%	< 10%	10%	16%	13%	21%	31%	12%	20%	25%	37%	21%	42%	12%	33%	inhibition of growth at 10 µM (SNB-19): 20%; inhibition of growth at 10 µM (U-251): 10%; inhibition of growth at 10 µM (T47D): 19%; inhibition of growth at 10 µM (UO-31): 10%; inhibition of growth at 10 µM (SK-OV-3): 17%; inhibition of growth at 10 µM (MDA-MB-468): 14%; inhibition of growth at 10 µM (SF-295): 21%; inhibition of growth at 10 µM (MDA-MB-435): 23%; inhibition of growth at 10 µM (TK-10): < 10%; inhibition of growth at 10 µM (SNB-75): 41%; inhibition of growth at 10 µM (HOP-62): 22%; inhibition of growth at 10 µM (786-0): < 10%; inhibition of growth at 10 µM (LOX IMVI): 25%; inhibition of growth at 10 µM (KM12): 18%; inhibition of growth at 10 µM (RXF 393): < 10%; inhibition of growth at 10 µM (A498): < 10%; inhibition of growth at 10 µM (SW-620): 14%
O=C(CSc1nc2ccccc2c(=O)n1CCc1ccccc1)Nc1ccc(F)cc1	< 10%	< 10%	< 10%	24%	23%	16%	< 10%	< 10%	18%	11%	18%	< 10%	10%	16%	< 10%	19%	10%	< 10%	< 10%	< 10%	inhibition of growth at 10 µM (SNB-19): < 10%; inhibition of growth at 10 µM (U-251): 17%; inhibition of growth at 10 µM (T47D): 25%; inhibition of growth at 10 µM (UO-31): 31%; inhibition of growth at 10 µM (SK-OV-3): 25%; inhibition of growth at 10 µM (MDA-MB-468): 23%; inhibition of growth at 10 µM (SF-295): 13%; inhibition of growth at 10 µM (MDA-MB-435): < 10%; inhibition of growth at 10 µM (TK-10): < 10%; inhibition of growth at 10 µM (SNB-75): < 10%; inhibition of growth at 10 µM (HOP-62): < 10%; inhibition of growth at 10 µM (786-0): < 10%; inhibition of growth at 10 µM (LOX IMVI): 18%; inhibition of growth at 10 µM (KM12): < 10%; inhibition of growth at 10 µM (RXF 393): 13%; inhibition of growth at 10 µM (A498): 10%; inhibition of growth at 10 µM (SW-620): < 10%
COc1cc(NC(=O)CSc2nc3ccccc3c(=O)n2CCc2ccccc2)cc(OC)c1OC	61%	87%	> 100%	35%	76%	> 100%	66%	35%	49%	59%	68%	> 100%	85%	59%	47%	> 100%	11%	70%	71%	64%	inhibition of growth at 10 µM (SNB-19): 73%; inhibition of growth at 10 µM (U-251): > 100%; inhibition of growth at 10 µM (T47D): > 100%; inhibition of growth at 10 µM (UO-31): > 100%; inhibition of growth at 10 µM (SK-OV-3): > 100%; inhibition of growth at 10 µM (MDA-MB-468): 71%; inhibition of growth at 10 µM (SF-295): 49%; inhibition of growth at 10 µM (MDA-MB-435): > 100%; inhibition of growth at 10 µM (TK-10): > 100%; inhibition of growth at 10 µM (SNB-75): > 100%; inhibition of growth at 10 µM (HOP-62): 91%; inhibition of growth at 10 µM (786-0): > 100%; inhibition of growth at 10 µM (LOX IMVI): 70%; inhibition of growth at 10 µM (KM12): 93%; inhibition of growth at 10 µM (RXF 393): 55%; inhibition of growth at 10 µM (A498): > 100%; inhibition of growth at 10 µM (SW-620): 52%
